ChEMBL document CHEMBL5385852, “Structural optimization and biological evaluation of 1-adamantylcarbonyl-4-phenylpiperazine derivatives as FXR agonists for NAFLD” (Eur J Med Chem, 2023)
Activity calls are given as the source filed them. The calls are words filed in the database; no cut-off is given here.

Key:
[1] = target: T1, Bile acid receptor (Homo sapiens, UniProt Q96RI1); assay: Agonist activity at Gal4-fused FXR LBD (unknown origin) transfected in HEK293T cells co-transfected with Peak12-Gal4UAS-luciferase reporter assessed as receptor transactivation incubated for 24 hrs by firefly luciferase assay; assay type: cell-based
T1 sequence (Q96RI1 whole entry): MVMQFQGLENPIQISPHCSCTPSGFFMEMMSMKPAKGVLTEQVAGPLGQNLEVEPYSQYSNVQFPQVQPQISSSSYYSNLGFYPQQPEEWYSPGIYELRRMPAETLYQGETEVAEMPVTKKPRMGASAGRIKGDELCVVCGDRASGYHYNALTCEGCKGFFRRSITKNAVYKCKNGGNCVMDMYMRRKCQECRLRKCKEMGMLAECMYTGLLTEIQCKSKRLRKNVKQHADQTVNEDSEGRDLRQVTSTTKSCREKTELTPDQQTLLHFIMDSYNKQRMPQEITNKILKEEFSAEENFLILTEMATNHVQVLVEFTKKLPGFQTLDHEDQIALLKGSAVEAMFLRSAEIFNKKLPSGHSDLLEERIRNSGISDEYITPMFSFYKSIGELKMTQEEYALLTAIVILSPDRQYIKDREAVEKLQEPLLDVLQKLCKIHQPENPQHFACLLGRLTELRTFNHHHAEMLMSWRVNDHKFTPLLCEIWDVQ

[2] = tested on: Mus musculus; assay: Anti-hyperlipidemic activity in high fat diet induced obese C57BL/6J mouse model assessed as decrease in hepatic total cholesterol level at 200 mg/kg; assay type: functional, organism-based
[3] = tested on: Mus musculus; assay: Anti-hyperlipidemic activity in high fat diet induced obese C57BL/6J mouse model assessed as decrease in total cholesterol level at 200 mg/kg; assay type: functional, organism-based
[4] = tested on: Mus musculus; assay: Anti-hyperlipidemic activity in high fat diet induced obese C57BL/6J mouse model assessed as improvement in insulin sensitivity at 200 mg/kg by insulin tolerance test; assay type: functional, organism-based
[5] = tested on: Mus musculus; assay: Anti-hyperlipidemic activity in high fat diet induced obese C57BL/6J mouse model assessed as decrease in hepatic triglyceride level at 200 mg/kg; assay type: functional, organism-based
[6] = tested on: Mus musculus; assay: Anti-hyperlipidemic activity in high fat diet induced obese C57BL/6J mouse model assessed as decrease in hepatic low density lipoprotein cholesterol level at 200 mg/kg; assay type: functional, organism-based

O=C(N1CCN(c2cc(Cl)ccc2O)CC1)C12CC3CC(CC(C3)C1)C2
EC50 [1]: 2140 nM

Cc1ccc(Cl)cc1N1CCN(C(=O)C23CC4CC(CC(C4)C2)C3)CC1
Activity [2]: inactive
Activity [3]: inactive
Activity [4]: inactive
Activity [5]: Active
Activity [6]: inactive
